According to article PMC6476928 (Frontiers in Pharmacology, 2019):
Substitutions are numbered along the chain they refer to.

Key:
Ito1 current of NRVMs = assay: Whole-cell patch clamp of Ito1 current in neonatal rat ventricular myocytes; format: cell-based; conditions: 100 nM JZTX-V, at 30 mV, holding potential −40 mV, N = 4, mean ± SEM
Excerpt: (§1) Neonatal rat ventricular myocytes cells were obtained from ventricles of neonatal Sprague–Dawley rats as previously reported ([Sung et al., 2012]; [Yan et al., 2018]). SD rats (Hunan SJA Laboratory Animal Co., Ltd., Changsha, China) were used according to the guidelines of the National Institutes of Health for Care and Use of Laboratory Animals. The experiments were approved by the Animal Care and Use Committee of Hunan Normal University.
Ito currents, The Ca^2+-currents blocker CdCl2 (200-μmol/L) were used in external solutions. To generate Ito1 current, cells were held at −40 mV to inactivate the fast Na^+ current and then stepped to potentials of −40 mV to +60 mV in 10-mV increments.
(§2) All data points are shown as mean SEM.

[1] = tested on: action potential of NRVMs; assay: Action potential recording in neonatal rat ventricular myocytes; format: cell-based; conditions: 100 nM JZTX-V
Excerpt: as §1
The APs, Pipette solution contained (mM) 120 KCl, 1 MgCl2, 10 EGTA, 10 Hepes, and 3 MgATP (pH = 7.4). The extracellular buffer contained (mM) 140 NaCl, 5.4 KCl, 1.3 CaCl2, 0.5 MgCl2, 5 Hepes, and 5.5 glucose (pH = 7.4).
as §2

Kv4.2 V290A = molecular target: T1, Kv4.2 V290A (Homo sapiens, UniProt Q9NZV8, V290A); assay: Patch clamp of Kv4.2 mutant V290A in HEK293T cells; format: cell-based
T1 construct: expressed in transfected cells; host or cells: HEK293T
T1 sequence (Q9NZV8 1-630 V290A): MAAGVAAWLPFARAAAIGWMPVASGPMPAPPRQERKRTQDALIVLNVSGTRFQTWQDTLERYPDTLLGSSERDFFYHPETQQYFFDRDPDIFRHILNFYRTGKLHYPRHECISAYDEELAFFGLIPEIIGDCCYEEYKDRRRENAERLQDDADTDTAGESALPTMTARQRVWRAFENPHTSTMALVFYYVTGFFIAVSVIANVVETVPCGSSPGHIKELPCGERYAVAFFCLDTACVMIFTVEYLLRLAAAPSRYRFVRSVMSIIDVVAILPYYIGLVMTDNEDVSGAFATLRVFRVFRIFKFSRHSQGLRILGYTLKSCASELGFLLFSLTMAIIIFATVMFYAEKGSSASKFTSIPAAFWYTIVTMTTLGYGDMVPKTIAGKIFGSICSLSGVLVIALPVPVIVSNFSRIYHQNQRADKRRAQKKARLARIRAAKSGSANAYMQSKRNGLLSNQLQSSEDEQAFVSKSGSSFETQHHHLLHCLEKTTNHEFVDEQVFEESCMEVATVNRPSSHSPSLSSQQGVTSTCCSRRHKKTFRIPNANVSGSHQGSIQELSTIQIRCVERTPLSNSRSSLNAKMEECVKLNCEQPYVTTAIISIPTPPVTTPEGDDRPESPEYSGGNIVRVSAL
T1 sequence (Q9NS61 1-270 partner): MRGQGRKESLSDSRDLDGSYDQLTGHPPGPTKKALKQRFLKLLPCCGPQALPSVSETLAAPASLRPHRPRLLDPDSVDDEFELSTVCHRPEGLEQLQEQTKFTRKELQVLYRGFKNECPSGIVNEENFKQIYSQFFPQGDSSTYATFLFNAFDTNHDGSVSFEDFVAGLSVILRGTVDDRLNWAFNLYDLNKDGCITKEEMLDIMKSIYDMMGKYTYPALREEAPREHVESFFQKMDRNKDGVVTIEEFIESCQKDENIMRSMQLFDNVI
Description: (§3) Human embryonic kidney cell line (HEK293T) was obtained from Shanghai Institute of Cell Biology, Chinese Academy of Sciences (Shanghai, China) and maintained with 5% CO2 at 37°C in DMEM supplemented with 10% heat-inactivated fetal calf and serum (FBS), penicillin (100 U/ml), and streptomycin (100 μg/ml). The WT/mutant Kv4.2 plasmids were transiently transfected into HEK293T by Lipofectamine^TM 2000 Reagent (Invitrogen), and the KChIP2 subunits were co-transfected with Kv4.2.
(§4) The extracellular buffer and pipette solution for AP, Ito, and Kv4.2 were used as follows.
Kv4.2 current, The pipette solution contained (mM) 140 KF, 5 ATP-2Na, 1 EGTA, and 10 HEPEs (pH = 7.4). […] The steady-state activation of Kv4.2 was measured with the holding potential −80 mV and applied from −80 mV to 70 mV (10-mV increments). Steady-state inactivation of Kv4.2 channel measured with a series of a 300-ms depolarizing test potential of 10 mV followed a 1000-ms prepulse at potentials ranging from −120 to +70 mV with a 5-mV increment.
Data were analyzed using the clampfit (Axon) and Origin 9 software programs. […] The steady-state activation relationship was measured using Boltzmann function (f(V) = 1/{1 + exp[−(V−V1/2)/k]}^4). Steady-state inactivation was measured using the Boltzmann function f(V) = 1/{1 + exp[−(V − V1/2)/k]}.

Kv4.2 I275A = assay: Patch clamp of Kv4.2 mutant I275A in HEK293T cells; format: cell-based
Excerpt: as §2

[2] = tested on: Kv4.2 S1–S2 linker mutants; assay: Patch clamp of Kv4.2 S1–S2 linker alanine mutants in HEK293T cells; format: cell-based; conditions: all S1–S2 linker mutants, N = 5
Excerpt: as §2

[3] = tested on: A-type potassium channels in DRG cells; conditions: ref Zeng et al., 2008; read-out: IC50, block of A-type potassium channels in DRG cells; cited from earlier work
kv4.1 = conditions: 5µM, X. laevis oocytes; cited from earlier work
Excerpt: Supplement Data_Sheet_1.docx, table 1: Supplementary Table 1.Activity of spider toxins on Kv2 and Kv4 channel subtypes Activities of spider toxins against different subtypes of Kv2 and Kv4 potassium channels are reported as IC50 (nanomolar) or as percentage of current inhibition at a single dose (nanomolar). Affinity (IC50) measurements | column: kv4.1

Kv4.2 = molecular target: T2, Kv4.2 (Homo sapiens, UniProt Q9NZV8); assay: Whole-cell patch clamp of WT Kv4.2 co-expressed with KChIP2 in HEK293T cells; format: cell-based; set-up: expressed in transfected cells; host or cells: HEK293T
T2 sequence (Q9NZV8 1-630): T1 sequence (Q9NZV8 1-630 V290A) with A290V
T2 sequence (Q9NS61 1-270 partner): T1 sequence (Q9NS61 1-270 partner)
Description: as §3, §4
Kv4.2 current, The pipette solution contained (mM) 140 KF, 5 ATP-2Na, 1 EGTA, and 10 HEPEs (pH = 7.4). […] The Kv4.2 currents were elicited by a 300-ms depolarizing voltage of 10 mV from a holding potential of −80 mV. The steady-state activation of Kv4.2 was measured with the holding potential −80 mV and applied from −80 mV to 70 mV (10-mV increments). Steady-state inactivation of Kv4.2 channel measured with a series of a 300-ms depolarizing test potential of 10 mV followed a 1000-ms prepulse at potentials ranging from −120 to +70 mV with a 5-mV increment.
Data were analyzed using the clampfit (Axon) and Origin 9 software programs. All data points are shown as mean SEM. The significance was estimated using unpaired two-tailed t-tests, and a P < 0.05 was considered statistically significant. n stands for the number of the separate experimental cells. […] The steady-state activation relationship was measured using Boltzmann function (f(V) = 1/{1 + exp[−(V−V1/2)/k]}^4). Steady-state inactivation was measured using the Boltzmann function f(V) = 1/{1 + exp[−(V − V1/2)/k]}.

CC[C@H](C)[C@H](NC(=O)[C@@H](NC(=O)[C@H](CCCCN)NC(=O)[C@H](CCCNC(=N)N)NC(=O)[C@@H]1CSSC[C@@H]2NC(=O)[C@H](C)NC(=O)[C@H](CCCNC(=N)N)NC(=O)[C@H](CCCCN)NC(=O)[C@H](CO)NC(=O)[C@H](CC(=O)O)NC(=O)[C@@H]3CSSC[C@H](NC(=O)[C@H](CCCNC(=N)N)NC(=O)[C@H](CC(C)C)NC(=O)CNC(=O)[C@H](CCC(=O)O)NC(=O)[C@H](CSSC[C@H](NC(=O)[C@@H](N)Cc4ccc(O)cc4)C(=O)N[C@@H](CCC(N)=O)C(=O)N[C@@H](CCCCN)C(=O)N[C@@H](Cc4c[nH]c5ccccc45)C(=O)N[C@@H](CCSC)C(=O)N[C@@H](Cc4c[nH]c5ccccc45)C(=O)N[C@@H]([C@@H](C)O)C(=O)N3)NC2=O)C(=O)N[C@@H](CCCCN)C(=O)N[C@@H](CC(C)C)C(=O)N[C@@H](Cc2c[nH]c3ccccc23)C(=O)N1)[C@@H](C)CC)C(=O)O [JZTX-V, Jingzhaotoxin-V]
inhibition of Ito1 current of NRVMs (Ito1 current of NRVMs): 78 ± 4.32%
APD10 compared with vehicle-treated group ([1]; 1 Hz, N = 5): 123.53 ± 4.23%
APD50 compared with vehicle-treated group ([1]; 1 Hz, N = 5): 124.34 ± 3.17%
APD90 compared with vehicle-treated group ([1]; 1 Hz, N = 5): 126.26 ± 3.23%
effect on APD10–50 ([1]; N = 5): did not affect
effect on APD50–90 ([1]; N = 5): did not affect
APD10 after treatment ([1]; control 12 ± 1 ms): 15 ± 1.7 ms
APD50 after treatment ([1]; control 88 ± 6 ms): 109 ± 8 ms
APD90 after treatment ([1]; control 245 ± 7 ms): 309 ± 10 ms
reduction of sensitivity to the toxin vs WT Kv4.2 (Kv4.2 V290A): ~12 fold
increase of affinity for JZTX-V vs WT Kv4.2 (Kv4.2 I275A): ~10 fold
JZTX-V binding affinity for Kv4.2 S1–S2 linker alanine mutants [2]: only a slight decrease
IC50 [3]: 52.3 nM
percentage of current inhibition kv4.1 (kv4.1): 25% (5µM) O
inhibition at 0.1 µM (Kv4.2; HEK-293T, read-out: inhibition of Kv4.2 potassium current): > 90%
V1/2 of steady-state activation (G–V curve) (Kv4.2; in presence of 10 nM JZTX-V, +20 mV in absence): +30 mV
half-maximal inactivation potential (Vin1/2) (Kv4.2; in presence of 10 nM JZTX-V, −44.5 mV without): −50.0 mV
